How the values were obtained:
[1] = tested on: HcbA3C-His (HcbA3, NADH:FMN oxidoreductase); test: NADH oxidation at […] nm, steady-state ping-pong fit; format: biochemical, Nocardioides sp. PD653; settings: 20 mM KPi pH 7.5, 20°C, ping-pong bi-bi
[2] = biological target: HcbA3C-His (HcbA3, NADH:FMN oxidoreductase); test: fluorescence quenching titration of flavin; format: binding, Nocardioides sp. PD653; settings: 50 nM FMN, 20 mM KPi pH 7.5, 20°C; oxidized FMN

Km ([1]; FMN 1–8 µM) [µM] | Kd [2] [nM] | Km ([1]; NADH 10–120 µM) [µM] | SMILES
51.7 ± 11.6 |  |  | NC(=O)C1=CN([C@@H]2O[C@H](COP(=O)(O)OP(=O)(O)OC[C@H]3O[C@@H](n4cnc5c(N)ncnc54)[C@H](O)[C@@H]3O)[C@@H](O)[C@H]2O)C=CC1 [NADH]
 | 750 ± 170 | 4.43 ± 0.69 | Cc1cc2nc3c(=O)[nH]c(=O)nc-3n(C[C@H](O)[C@H](O)[C@H](O)COP(=O)(O)O)c2cc1C [FMN]
